Reference: US20050060764A1, “Mouse model for bone metabolism” (priority 2003, published 2005)
Strand notation (5' to 3'): a small letter for the sugar, then the base; units joined by * are phosphorothioate-linked, units joined directly phosphodiester-linked; [ ] holds rarer units or linkages, { } end groups; capitals alone tell only the bases. e = 2'-O-(2-methoxyethyl) (MOE); [5mC] = 5-methylcytosine; d = 2'-deoxy (DNA)

System: mouse RANKL mRNA
Test: Antisense inhibition of mouse RANKL mRNA levels in C2C12 cells, quantitative real-time PCR (Table 2)
Assay type: cell-based
Set-up: concentration or dose not given beside the values
Conditions: averages from three experiments
Experimental: Cells were seeded into 24-well plates (Falcon-353047 at a density of ˜10,000 cells/cm^2 for use in antisense oligonucleotide transfection.
Cells are treated and data are obtained in triplicate. […] Cells were harvested 16-24 hours after oligonucleotide treatment.
PCR reagents were obtained from Invitrogen Corporation, (Carlsbad, Calif.).
Probes and primers to mouse RANKL were designed to hybridize to a mouse RANKL sequence, using published sequence information (GenBank accession number AF013170.1, incorporated herein as SEQ ID NO:ll). For mouse RANKL the PCR primers were: • forward primer: […] (SEQ ID NO:12) • reverse primer: […] (SEQ ID NO: 13) and • the PCR probe was: FAM-[…]-TAMRA (SEQ ID NO: 14) where FAM is the fluorescent reporter dye and TAMRA is the quencher dye. For mouse GAPDH the PCR primers were: • forward primer: […](SEQ ID NO:15) • reverse primer: […](SEQ ID NO:16) and the • PCR probe was: 5′ JOE-[…]-TAMRA 3′ (SEQ ID NO: 17) where JOE is the fluorescent reporter dye and TAMRA is the quencher dye.
In accordance with the present invention, a second series of antisense compounds was designed to target different regions of the mouse RANKL RNA, using published sequences (GenBank accession number AF013170.1, incorporated herein as SEQ ID NO: 11). […] All cytidine residues are 5-methylcytidines. […] If present “N.D.” indicates “no data”.

Substance | % INHIB (inhibition of mouse RANKL mRNA levels) [%]
180788 (antisense eG*eT*eT*e[5mC]*eA*d[5mC]*dA*dA*dA*dG*dG*dT*d[5mC]*d[5mC]*dT*eG*eG*e[5mC]*eA*eG) [compound 180788] | 62
180789 (antisense eG*e[5mC]*eA*eG*eA*d[5mC]*dT*d[5mC]*d[5mC]*dG*d[5mC]*d[5mC]*dA*d[5mC]*dG*eG*e[5mC]*e[5mC]*e[5mC]*e[5mC]) [compound 180789] | 34
180790 (antisense eA*eG*e[5mC]*eA*eG*dA*d[5mC]*dT*d[5mC]*d[5mC]*dG*d[5mC]*d[5mC]*dA*d[5mC]*eG*eG*e[5mC]*e[5mC]*e[5mC]) [compound 180790] | 59
180791 (antisense e[5mC]*e[5mC]*eG*e[5mC]*e[5mC]*dG*dA*dG*d[5mC]*dA*dG*dA*d[5mC]*dT*d[5mC]*e[5mC]*eG*e[5mC]*e[5mC]*eA) [compound 180791] | 44
180792 (antisense eT*eG*e[5mC]*eT*e[5mC]*d[5mC]*dG*d[5mC]*dG*dA*dT*d[5mC]*dG*dT*dT*e[5mC]*eT*e[5mC]*eT*e[5mC]) [compound 180792] | 77
180793 (antisense eG*e[5mC]*e[5mC]*e[5mC]*eT*dG*d[5mC]*dT*d[5mC]*d[5mC]*dG*d[5mC]*dG*dA*dT*e[5mC]*eG*eT*eT*e[5mC]) [compound 180793] | 74
180794 (antisense e[5mC]*e[5mC]*eG*eG*e[5mC]*dG*d[5mC]*dA*dT*dG*dG*d[5mC]*dG*d[5mC]*dG*eG*e[5mC]*eG*e[5mC]*e[5mC]) [compound 180794] | 0
180795 (antisense eG*e[5mC]*eT*eG*eG*d[5mC]*d[5mC]*d[5mC]*dG*dG*d[5mC]*dG*d[5mC]*dA*dT*eG*eG*e[5mC]*eG*e[5mC]) [compound 180795] | 62
180796 (antisense eT*e[5mC]*eG*eG*e[5mC]*dT*dG*dG*d[5mC]*d[5mC]*d[5mC]*dG*dG*d[5mC]*dG*e[5mC]*eA*eT*eG*eG) [compound 180796] | 67
180797 (antisense eT*e[5mC]*eT*e[5mC]*eG*dG*d[5mC]*dT*dG*dG*d[5mC]*d[5mC]*d[5mC]*dG*dG*e[5mC]*eG*e[5mC]*eA*eT) [compound 180797] | 60
180798 (antisense e[5mC]*e[5mC]*eT*eT*e[5mC]*dG*dT*dG*dT*dG*dG*dG*dA*d[5mC]*dG*e[5mC]*e[5mC]*eG*eG*eG) [compound 180798] | 34
180799 (antisense e[5mC]*eG*eG*eG*eA*dG*dG*d[5mC]*dG*dG*d[5mC]*dG*dG*dG*dT*eG*eG*e[5mC]*eG*eG) [compound 180799] | 52
180800 (antisense eA*e[5mC]*eA*eT*eG*dG*dA*dG*d[5mC]*dG*dG*dG*dA*dG*dG*e[5mC]*eG*eG*e[5mC]*eG) [compound 180800] | 54
180801 (antisense eA*eA*e[5mC]*eA*eT*dG*dG*dA*dG*d[5mC]*dG*dG*dG*dA*dG*eG*e[5mC]*eG*eG*e[5mC]) [compound 180801] | 40
180803 (antisense eT*e[5mC]*eT*eT*e[5mC]*dA*d[5mC]*dT*d[5mC]*dT*d[5mC]*d[5mC]*dA*dG*dA*eG*eT*e[5mC]*eG*eA) [compound 180803] | 55
180804 (antisense e[5mC]*eA*eG*eT*eT*d[5mC]*d[5mC]*dT*dT*d[5mC]*dT*dG*d[5mC]*dA*d[5mC]*eG*eG*e[5mC]*e[5mC]*e[5mC]) [compound 180804] | 44

System: rat RANKL mRNA
Test: Antisense inhibition of rat RANKL mRNA levels in UMR-106 cells, quantitative real-time PCR (Table 3)
Assay type: cell-based
Set-up: concentration or dose not given beside the values
Conditions: averages from three experiments
Method in brief: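 UMR-106 cells transfected with antisense oligonucleotides (5-methylcytidine throughout) in triplicate, harvested 16-24 h after treatment. RANKL mRNA quantified by real-time RT-PCR with a FAM/TAMRA probe, using rat GAPDH (JOE/TAMRA probe) as the reference.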

Substance | % INHIB (inhibition of rat RANKL mRNA levels)
gtggcacaggcccaggagtt (eG*eT*eG*eG*e[5mC]*dA*d[5mC]*dA*dG*dG*d[5mC]*d[5mC]*d[5mC]*dA*dG*eG*eA*eG*eT*eT; antisense) [ISIS 286650, 2′-MOE gapmer targeted to rat RANKL] | at least 40%
tagagatcttggcccagcct (eT*eA*eG*eA*eG*dA*dT*d[5mC]*dT*dT*dG*dG*d[5mC]*d[5mC]*d[5mC]*eA*eG*e[5mC]*e[5mC]*eT; antisense) [ISIS 286615, 2′-MOE gapmer targeted to rat RANKL] | at least 40%
taggatccatctgcgctcga (eT*eA*eG*eG*eA*dT*d[5mC]*d[5mC]*dA*dT*d[5mC]*dT*dG*d[5mC]*dG*e[5mC]*eT*e[5mC]*eG*eA; antisense) [ISIS 286595, 2′-MOE gapmer targeted to rat RANKL] | at least 40%
tcacggagtctcagaattct (eT*e[5mC]*eA*e[5mC]*eG*dG*dA*dG*dT*d[5mC]*dT*d[5mC]*dA*dG*dA*eA*eT*eT*e[5mC]*eT; antisense) [ISIS 286601, 2′-MOE gapmer targeted to rat RANKL] | at least 40%
tcagtctatgtcttgaactt (eT*e[5mC]*eA*eG*eT*d[5mC]*dT*dA*dT*dG*dT*d[5mC]*dT*dT*dG*eA*eA*e[5mC]*eT*eT; antisense) [ISIS 286642, 2′-MOE gapmer targeted to rat RANKL] | at least 40%
tccagagtcgagtcctgcaa (eT*e[5mC]*e[5mC]*eA*eG*dA*dG*dT*d[5mC]*dG*dA*dG*dT*d[5mC]*d[5mC]*eT*eG*e[5mC]*eA*eA; antisense) [ISIS 286604, 2′-MOE gapmer targeted to rat RANKL] | at least 40%
tctgttaggatccatctgcg (eT*e[5mC]*eT*eG*eT*dT*dA*dG*dG*dA*dT*d[5mC]*d[5mC]*dA*dT*e[5mC]*eT*eG*e[5mC]*eG; antisense) [ISIS 286596, 2′-MOE gapmer targeted to rat RANKL] | at least 40%
tgtggccccacaatgtgttg (eT*eG*eT*eG*eG*d[5mC]*d[5mC]*d[5mC]*d[5mC]*dA*d[5mC]*dA*dA*dT*dG*eT*eG*eT*eT*eG; antisense) [ISIS 286607, 2′-MOE gapmer targeted to rat RANKL] | at least 40%
tgttggcgtacaggtaatag (eT*eG*eT*eT*eG*dG*d[5mC]*dG*dT*dA*d[5mC]*dA*dG*dG*dT*eA*eA*eT*eA*eG; antisense) [ISIS 286626, 2′-MOE gapmer targeted to rat RANKL] | at least 40%
tttgcacggccccttgaaag (eT*eT*eT*eG*e[5mC]*dA*d[5mC]*dG*dG*d[5mC]*d[5mC]*d[5mC]*d[5mC]*dT*dT*eG*eA*eA*eA*eG; antisense) [ISIS 286605, 2′-MOE gapmer targeted to rat RANKL] | at least 40%
ttttaacgacatataccatc (eT*eT*eT*eT*eA*dA*d[5mC]*dG*dA*d[5mC]*dA*dT*dA*dT*dA*e[5mC]*e[5mC]*eA*eT*e[5mC]; antisense) [ISIS 286630, 2′-MOE gapmer targeted to rat RANKL] | at least 40%
ttttgtacaacgtgggccac (eT*eT*eT*eT*eG*dT*dA*d[5mC]*dA*dA*d[5mC]*dG*dT*dG*dG*eG*e[5mC]*e[5mC]*eA*e[5mC]; antisense) [ISIS 286646, 2′-MOE gapmer targeted to rat RANKL] | at least 40%
